What was measured:
[1] = test system: Nα(Ac)-L-Lys-D-Ala-D-Ala; test: FTIR-ATR biosensor binding of vancomycin to immobilized peptide receptor; conditions: for vancomycin binding: 50 µg/mL; for Kd: single site binding isotherm, R^2 = 0.99, ± standard error
Procedure: On the thus functionalized ATR element a peptide was bound. Peptide binding onto the device was obtained in one channel of measurement at a time by incubation for 3 hours of N-α-acetyl-Lys-D-Ala-D-Ala peptide, or another peptide as provided in Figure 2, at a concentration of 2 mg/mL in phosphate buffered saline (PBS) at room temperature. The measurement channel was then rinsed with milliQ water for 30 min.
The binding of the peptide was monitored by FTIR-ATR spectroscopy by using the BIA-ATR device. Attenuated Total Reflection Fourier Transformed Infrared (ATR-FTIR) Spectra were obtained on a Brüker IFS55 FTIR spectrophotometer (Ettlingen, Germany) equipped with a MCT detector (broad band 12000-420 cm^-1, liquid N2 cooled, 24h hold time) at a resolution of 8 cm^-1 with an aperture of 3.5 mm and acquired in the double-sided, forward-backward mode. Two levels of zero filling of the interferogram prior to Fourier transform allowed encoding the data every 1 cm^-1. The spectrometer was continuously purged with dry air (Whatman 75-62, Haverhill, MA, USA). Triangular-shaped germanium crystals (4.8 x 4.8 x 45 mm^3) were purchased from Biosentech (Belgium) and accommodated on the beam condenser from a Golden Gate Micro-ATR from Specac. A top plate with a groove fitting the crystal was used in replacement of the diamond-bearing plate (WOW Company, Belgium). With this geometry, a single reflection was obtained and more than 10 lanes can be used on a crystal.
Using a biosensor constructed in Example 1, a solution of vancomycin in pure water (obtained from the laboratory MilliQ system) at a concentration of at 50 µg/mL is passed over one channel of the crystal at a flow-rate of 20 µl/min. FTIR-ATR spectra were recorded continuously and the vancomycin binding is monitored by following the appearance of its characteristic signal at 1230 cm^-1. This monitoring of this signal is advantageous as it is isolated in the spectra, i.e. not superimposed to other signals due to ligand and/or receptor. The intensity of the peak at 1230 cm^-1 thus allowed the quantitative measurement of vancomycin binding.
The N-α(Ac)-L-Lys-D-Ala-D-Ala biosensor as described in Example 1 was used. A solution of vancomycin in phosphate buffered saline (50 µg/mL) was used in the binding assay. The quantitative analysis was performed by measuring the surface on the IR spectra comprised between 1253 and 1218 cm^-1. The spectra were recorded every 30 sec during 5 min. […] The results are depicted in Figure 1.
The unexpected effect on the binding affinity of vancomycin versus X-D-Ala-D-Ala receptor immobilized on the ATR optical element, has been further observed by using the following detection media: 3 mM aqueous solution of Na2HPO4, 10 mM aqueous solution of Na2HPO4, 154 mM aqueous solution of NaCl, and a PBS solution made from 3 mM Na2HPO4 and 50 mM NaCl.
The Nα(Ac)-L-Lys-D-Ala-D-Ala biosensor described in Example 1 was used. The assays were performed three times successively using the same channel, and this has been repeated at three different days (n = 9) using another channel for each day. Solutions of vancomycin in 5% glucose at various concentrations (from 0 to 25 µg/mL) were passed over the crystal at a flow rate of 20 µL/min. The vancomycin binding was analyzed by the integration of the peak at 1230 cm^-1 (10 spectra recorded every 30 sec), and normalized by referring to the 25 µg/mL concentration.
The spiked dialyzed serum samples were flown over a measurement channel on which the Nα(Ac)-L-Lys-D-Ala-D-Ala had been attached as described before in Example 1. The absorption band between 1259 and 1213 cm^-1 was quantified for each vancomycin concentration. The area of the band was reported as a function of vancomycin concentration. […] From the data reported in Figure 4 it follows that vancomycin binding can be monitored with precision in a concentration range which is relevant for medical application.

[2] = test system: N-α-acetyl-Lys-D-ala-D-ala; test: Quartz crystal microbalance (QCM) detection of vancomycin on grafted peptide receptor; type: binding; conditions: water/glucose solution compared with water; 1 µM and 40 µM; flow rate 40 µL/min
Procedure: Quartz crystal microbalance experiments were performed using SRS Stanford Research Systems (QCM 200 5MHz). The surfaces of gold-plated quartz crystal on chips were prepared as follows: gold-plated quartz crystals were initially immersed in a piranha solution (70/30) for 3 minutes to regenerate the surfaces. The resulting crystals were repeatedly and intensively rinsed with water. The crystals were subsequently grafted with mPEG thiols (O-(2-Mercaptoethyl)-O'-methyl-hexa(ethylene glycol) (polypure) 10^-3 M in ethanol. The grafted crystals were subsequently rinsed with ethanol in an ultrasonic bath, and dried with N2. The grafted crystals were subsequently grafted with NHS ester succinimidyl, 2 mM in acetonitrile sprayed on the surfaces and the surfaces were placed in front of a UV lamp during 2 hours. The functionalized surfaces of the crystals were subsequently rinsed with acetonitrile in an ultrasonic bath; dried with N2, and then subsequently grafted with N-α-acetyl-Lys-D-ala-D-ala in pure water and in water with 5% of glucose (vol.).
All QCM experiments used a flow rate of 40 µL/min. The quality of all the grafting has been tested at each step, by contact angle measurements and IR spectra. All of them were satisfactory. Figures 6, 7 and 8 represent QCM data plot showing delta frequency (MHz) change over time of vancomycin detection. […]

In the case of CN[C@H](CC(C)C)C(=O)N[C@H]1C(=O)N[C@@H](CC(N)=O)C(=O)N[C@H]2C(=O)N[C@H]3C(=O)N[C@H](C(=O)N[C@H](C(=O)O)c4cc(O)cc(O)c4-c4cc3ccc4O)[C@H](O)c3ccc(c(Cl)c3)Oc3cc2cc(c3O[C@@H]2O[C@H](CO)[C@@H](O)[C@H](O)[C@H]2O[C@H]2C[C@](C)(N)[C@H](O)[C@H](C)O2)Oc2ccc(cc2Cl)[C@H]1O [vancomycin], the “amount of vancomycin detected” value ([1]; 50 µg/mL in phosphate buffered saline, compared to pure water, IR area 1253-1218 cm^-1) is reported as “very weak”, the vancomycin binding ([1]; effect of phosphate (3 mM or 10 mM Na2HPO4, PBS) in detection medium) is reported as “totally prevents” and the vancomycin binding ([1]; effect of sodium chloride at physiological concentration (154 mM NaCl)) is reported as “partially inhibited”. For the same compound, the Kd ([1]; in 5% glucose, band area 1259-1213 cm^-1) was 13.7 ± 1.8 µM, the Kd ([1]; in human serum dialyzed against 5% glucose) was 7.3 ± 0.8 µM and the “vancomycin binding onto the receptor” value ([1]; in pure water) was “maximal”. The delta frequency shift [2] was “greater delta frequency was always observed in the presence of glucose”.

From patent EP2490029A1, “Vancomycin analysis” (Université Catholique de Louvain, priority 2011, dated 2012)
